Results on eight compounds are retold here after patent US8642544B2, “N-terminus conformationally constrained GLP-1 receptor agonist compounds” (Amylin Pharmaceuticals, LLC, priority 2009, dated 2014).

The target in the test is T1, GLP-1 receptor (Rattus norvegicus, UniProt P32301).
T1 construct: 96-well assay plate containing RIN m5f cell membranes in an ATP/GTP mixture; endogenous in cells; host or cells: RIN m5f cell membranes
T1 sequence (P32301 22-463): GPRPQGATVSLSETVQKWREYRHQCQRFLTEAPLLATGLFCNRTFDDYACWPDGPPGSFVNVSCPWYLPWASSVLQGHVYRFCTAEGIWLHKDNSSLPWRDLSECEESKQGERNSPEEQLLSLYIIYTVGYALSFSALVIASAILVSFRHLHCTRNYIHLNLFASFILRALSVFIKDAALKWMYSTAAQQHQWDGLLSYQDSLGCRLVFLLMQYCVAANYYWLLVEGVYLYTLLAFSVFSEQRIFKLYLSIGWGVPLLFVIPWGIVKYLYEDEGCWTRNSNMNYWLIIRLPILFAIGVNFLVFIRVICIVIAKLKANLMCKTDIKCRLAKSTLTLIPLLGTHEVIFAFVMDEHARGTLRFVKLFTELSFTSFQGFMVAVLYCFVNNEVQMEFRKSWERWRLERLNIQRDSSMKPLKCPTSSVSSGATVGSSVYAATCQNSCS
The test is described as follows: in vitro functional assay at the GLP-1 receptor (cyclase, cAMP production in RIN m5f cell membranes). Type of test: biochemical. How it is done:
The compounds shown in Table 1 below were analyzed in an in vitro functional assay at the GLP-1 receptor. The assay was conducted as follows: Membrane fractions were prepared from confluent cultures of RIN m5f cells. Compounds were serially diluted with an assay buffer, and then added to a 96-well assay plate containing RIN m5f cell membranes in an ATP/GTP mixture. Cyclase activities were determined by measuring the production of cAMP induced through GLP-1 receptor activation. Quantification of cAMP production was achieved through a competitive chemiluminescence assay with a biotinylated-cAMP probe using Perkin Elmer Fusion™-Alpha Microplate Analyzer (AlphaScreen™ technology). The compound EC50 values were obtained through fitting the concentration-response curves to a four-parameter logistic equation within GraphPad PRISM® software.
(cAMP levels reflect the balance of adenylyl cyclase and phosphodiesterase activity.)

The mark [1] stands for this setting: Cyclase GLP-1 Receptor EC50 (nM), Table 1, RIN m5f cell membranes, cAMP production (AlphaScreen).

Like-named read-outs stand apart in the source and are kept apart here.

Regarding `CC[C@H](C)[C@H](NC(=O)[C@H](Cc1ccccc1)NC(=O)[C@H](CC(C)C)NC(=O)[C@H](CCCNC(=N)N)NC(=O)[C@@H](NC(=O)[C@H](C)NC(=O)[C@H](CCC(=O)O)NC(=O)[C@H](CCC(=O)O)NC(=O)[C@H](CCC(=O)O)NC(=O)[C@H](CC(C)C)NC(=O)[C@H](CCC(N)=O)NC(=O)[C@H](CCCCN)NC(=O)[C@H](CO)NC(=O)[C@H](CC(C)C)NC(=O)[C@H](CC(=O)O)NC(=O)[C@H](CO)NC(=O)[C@@H](NC(=O)[C@H](Cc1ccccc1)NC(=O)[C@@H](NC(=O)CNC(=O)[C@@H]1CSCN1C(=O)CNC(=O)[C@@H](N)Cc1c[nH]cn1)[C@@H](C)O)[C@@H](C)O)C(C)C)C(=O)N[C@@H](CCC(=O)O)C(=O)N[C@@H](Cc1ccccc1)C(=O)N[C@@H](CC(C)C)C(=O)N[C@@H](CCCCN)C(=O)N[C@@H](CC(N)=O)C(N)=O` [5C], the EC50 (Table 1, RIN m5f cell membranes, cAMP production (AlphaScreen), read-out: Cyclase GLP-1 Receptor EC50) is 1.06 nM. On to `CC[C@H](C)[C@H](NC(=O)[C@H](Cc1ccccc1)NC(=O)[C@H](CC(C)C)NC(=O)[C@H](CCCNC(=N)N)NC(=O)[C@@H](NC(=O)[C@H](C)NC(=O)[C@H](CCC(=O)O)NC(=O)[C@H](CCC(=O)O)NC(=O)[C@H](CCC(=O)O)NC(=O)[C@H](CC(C)C)NC(=O)[C@H](CCC(N)=O)NC(=O)[C@H](CCCCN)NC(=O)[C@H](CO)NC(=O)[C@H](CC(C)C)NC(=O)[C@H](CC(=O)O)NC(=O)[C@H](CO)NC(=O)[C@@H](NC(=O)[C@H](Cc1ccccc1)NC(=O)[C@@H](NC(=O)CNC(=O)[C@@H]1CCCN1C(=O)[C@@H](NC(=O)[C@@H](N)Cc1c[nH]cn1)C(C)C)[C@@H](C)O)[C@@H](C)O)C(C)C)C(=O)N[C@@H](CCC(=O)O)C(=O)N[C@@H](Cc1ccccc1)C(=O)N[C@@H](CC(C)C)C(=O)N[C@@H](CCCCN)C(=O)N[C@@H](CC(N)=O)C(N)=O` [6C], for which, under setting [1], the response was half-maximal at 152 nM (EC50).

For the compound `CC[C@H](C)[C@H](NC(=O)[C@H](Cc1ccccc1)NC(=O)[C@H](CC(C)C)NC(=O)[C@H](CCCNC(=N)N)NC(=O)[C@@H](NC(=O)[C@H](C)NC(=O)[C@H](CCC(=O)O)NC(=O)[C@H](CCC(=O)O)NC(=O)[C@H](CCC(=O)O)NC(=O)[C@H](CC(C)C)NC(=O)[C@H](CCC(N)=O)NC(=O)[C@H](CCCCN)NC(=O)[C@H](CO)NC(=O)[C@H](CC(C)C)NC(=O)[C@H](CC(=O)O)NC(=O)[C@H](CO)NC(=O)[C@@H](NC(=O)[C@H](Cc1ccccc1)NC(=O)[C@@H](NC(=O)[C@@H]1CSSC[C@@H](NC(=O)[C@@H](N)Cc2c[nH]cn2)C(=O)N2CCC[C@H]2C(=O)N1)[C@@H](C)O)[C@@H](C)O)C(C)C)C(=O)N[C@@H](CCC(=O)O)C(=O)N[C@@H](Cc1ccccc1)C(=O)N[C@@H](CC(C)C)C(=O)N[C@@H](CCCCN)C(=O)N[C@@H](CC(N)=O)C(N)=O` [8B], the EC50 under setting [1] stood at 1.26 nM.

As for `CC[C@H](C)[C@H](NC(=O)[C@H](Cc1ccccc1)NC(=O)[C@H](CC(C)C)NC(=O)[C@H](CCCNC(=N)N)NC(=O)[C@@H](NC(=O)[C@H](C)NC(=O)[C@H](CCC(=O)O)NC(=O)[C@H](CCC(=O)O)NC(=O)[C@H](CCC(=O)O)NC(=O)[C@H](CC(C)C)NC(=O)[C@H](CCC(N)=O)NC(=O)[C@H](CCCCN)NC(=O)[C@H](CO)NC(=O)[C@H](CC(C)C)NC(=O)[C@H](CC(=O)O)NC(=O)[C@H](CO)NC(=O)[C@@H](NC(=O)[C@H](Cc1ccccc1)NC(=O)[C@@H](NC(=O)[C@H]1CSSC[C@@H](NC(=O)[C@@H](N)Cc2c[nH]cn2)C(=O)N2CCC[C@H]2C(=O)N1)[C@@H](C)O)[C@@H](C)O)C(C)C)C(=O)N[C@@H](CCC(=O)O)C(=O)N[C@@H](Cc1ccccc1)C(=O)N[C@@H](CC(C)C)C(=O)N[C@@H](CCCCN)C(=O)N[C@@H](CC(N)=O)C(N)=O` [8C], the midpoint of the response under setting [1], the EC50, lay at 969 nM. Under setting [1], `CC[C@H](C)[C@H](NC(=O)[C@H](Cc1ccccc1)NC(=O)[C@H](CC(C)C)NC(=O)[C@H](CCCNC(=N)N)NC(=O)[C@@H](NC(=O)[C@H](C)NC(=O)[C@H](CCC(=O)O)NC(=O)[C@H](CCC(=O)O)NC(=O)[C@H](CCC(=O)O)NC(=O)[C@H](CC(C)C)NC(=O)[C@H](CCC(N)=O)NC(=O)[C@H](CCCCN)NC(=O)[C@H](CO)NC(=O)[C@H](CC(C)C)NC(=O)[C@H](CC(=O)O)NC(=O)[C@H](CO)NC(=O)[C@@H](NC(=O)[C@H](Cc1ccccc1)NC(=O)[C@@H](NC(=O)[C@H]1CSSC[C@H](NC(=O)[C@@H](N)Cc2c[nH]cn2)C(=O)N2CCC[C@H]2C(=O)N1)[C@@H](C)O)[C@@H](C)O)C(C)C)C(=O)N[C@@H](CCC(=O)O)C(=O)N[C@@H](Cc1ccccc1)C(=O)N[C@@H](CC(C)C)C(=O)N[C@@H](CCCCN)C(=O)N[C@@H](CC(N)=O)C(N)=O` [8D] returned a concentration for a half-maximal effect (EC50) of 106 nM. Take `CC[C@H](C)[C@H](NC(=O)[C@H](Cc1ccccc1)NC(=O)[C@H](CC(C)C)NC(=O)[C@H](CCCNC(=N)N)NC(=O)[C@@H](NC(=O)[C@H](C)NC(=O)[C@H](CCC(=O)O)NC(=O)[C@H](CCC(=O)O)NC(=O)[C@H](CCC(=O)O)NC(=O)[C@H](CC(C)C)NC(=O)[C@H](CCC(N)=O)NC(=O)[C@H](CCCCN)NC(=O)[C@H](CO)NC(=O)[C@H](CC(C)C)NC(=O)[C@H](CC(=O)O)NC(=O)[C@H](CO)NC(=O)[C@@H](NC(=O)[C@H](Cc1ccccc1)NC(=O)[C@@H](NC(=O)CN1CC[C@@H](C(=O)O)[C@H](NC(=O)[C@H](C)NC(=O)[C@@H](N)Cc2c[nH]cn2)C1=O)[C@@H](C)O)[C@@H](C)O)C(C)C)C(=O)N[C@@H](CCC(=O)O)C(=O)N[C@@H](Cc1c[nH]c2ccccc12)C(=O)N[C@@H](CC(C)C)C(=O)N[C@@H](CCCCN)C(=O)N[C@@H](CCC(N)=O)C(=O)NCC(=O)NCC(=O)N1CCC[C@H]1C(=O)N[C@@H](CO)C(=O)N[C@@H](CCCCN)C(=O)N[C@@H](CCC(=O)O)C(=O)N[C@H](C(=O)N[C@H](C(=O)N[C@@H](CO)C(=O)O)[C@@H](C)CC)[C@@H](C)CC` [16B]: under setting [1], the EC50 turned out to be 0.18 nM.

On to `CC[C@H](C)[C@H](NC(=O)[C@H](Cc1ccccc1)NC(=O)[C@H](CC(C)C)NC(=O)[C@H](CCCNC(=N)N)NC(=O)[C@@H](NC(=O)[C@H](C)NC(=O)[C@H](CCC(=O)O)NC(=O)[C@H](CCC(=O)O)NC(=O)[C@H](CCC(=O)O)NC(=O)[C@H](CCSC)NC(=O)[C@H](CCC(N)=O)NC(=O)[C@H](CCCCN)NC(=O)[C@H](CO)NC(=O)[C@H](CC(C)C)NC(=O)[C@H](CC(=O)O)NC(=O)[C@H](CO)NC(=O)[C@@H](NC(=O)[C@H](Cc1ccccc1)NC(=O)[C@@H](NC(=O)CNC(=O)[C@@H]1CCCN1C(=O)[C@H](C)NC(=O)CCc1c[nH]cn1)[C@@H](C)O)[C@@H](C)O)C(C)C)C(=O)N[C@@H](CCC(=O)O)C(=O)N[C@@H](Cc1c[nH]c2ccccc12)C(=O)N[C@@H](CC(C)C)C(=O)N[C@@H](CCCCN)C(=O)N[C@@H](CC(N)=O)C(=O)N[C@@H](CCCCNC(=O)CCCC[C@@H]1SC[C@@H]2NC(=O)N[C@@H]21)C(N)=O` [Compound 24D], for which, under “Cyclase GLP-1 Receptor EC50 (nM), Table 3, methods of Example 16”, a half-maximal effect (EC50) was put at 0.77 nM. As to `CC[C@H](C)[C@H](NC(=O)[C@H](Cc1ccccc1)NC(=O)[C@H](CC(C)C)NC(=O)[C@H](CCCNC(=N)N)NC(=O)[C@@H](NC(=O)[C@H](C)NC(=O)[C@H](CCC(=O)O)NC(=O)[C@H](CCC(=O)O)NC(=O)[C@H](CCC(=O)O)NC(=O)[C@H](CC(C)C)NC(=O)[C@H](CCC(N)=O)NC(=O)[C@H](CCCCN)NC(=O)[C@H](CO)NC(=O)[C@H](CC(C)C)NC(=O)[C@H](CC(=O)O)NC(=O)[C@H](CO)NC(=O)[C@@H](NC(=O)[C@H](Cc1ccccc1)NC(=O)[C@@H](NC(=O)CNC(=O)[C@@H]1CCCN1C(=O)[C@H]1CSC([C@@H](N)Cc2c[nH]cn2)N1)[C@@H](C)O)[C@@H](C)O)C(C)C)C(=O)N[C@@H](CCC(=O)O)C(=O)N[C@@H](Cc1ccccc1)C(=O)N[C@@H](CC(C)C)C(=O)N[C@@H](CCCCN)C(=O)N[C@@H](CC(N)=O)C(N)=O` (some centres unmarked) [Compound in Figure 17B], under setting [1], it took 668 nM to reach a half-maximal effect (EC50).

A word on the EC50: it is the concentration at which the effect is half-maximal.
